This passage reports IC50 results from patent publication US12577226B2, “Compounds for treating Huntington's disease” (PTC THERAPEUTICS, INC., priority 2019, dated 2026).

By IC50 is commonly meant the concentration that inhibits the measured activity by half.

The experiment relates to Endogenous Huntingtin Protein (capture with MW1 (expanded polyglutamine) or MAB2166 antibody). Nature of the experiment: Endogenous Huntingtin Protein Assay (ELISA-based Meso Scale Discovery electrochemiluminescence assay). Type of experiment: cell-based. The conditions noted are these: MSD electrochemiluminescence platform. As for the experimental part: Compounds of Formula (I), Formula (II), or Formula (III) were tested using the Meso Scale Discovery (MSD) Assay provided in International Application No. PCT/US2016/066042, filed on Dec. 11, 2016 and claiming priority to U.S. Provisional Application U.S. 62/265,652 filed on Dec. 10, 2015, the entire contents of which are incorporated herein by reference.
The Endogenous Huntingtin Protein assay used in Example 1 was developed using the ELISA-based MSD electrochemiluminescence assay platform.
Meso Scale Discovery (MSD) 96-well or 384-well plates were coated overnight at 4° C. with MW1 (expanded polyglutamine) or MAB2166 monoclonal antibody (for capture) at a concentration of 1 μg/mL in PBS (30 μL per well). Plates were then washed three times with 300 μL wash buffer (0.05% Tween-20 in PBS) and blocked (100 μL blocking buffer; 5% BSA in PBS) for 4-5 hours at room temperature with rotational shaking and then washed three times with wash buffer.
Samples (25 μL) were transferred to the antibody-coated MSD plate and incubated overnight at 4° C. After removal of the lysates, the plate was washed three times with wash buffer, and 25 μL of #5656S (Cell signaling; rabbit monoclonal) secondary antibody (diluted to 0.25 μg/mL in 0.05% Tween-20 in blocking buffer) was added to each well and incubated with shaking for 1 Hour at room temperature. Following incubation with the secondary antibody, the wells were rinsed with wash buffer after which 25 μL of goat anti-rabbit SULFO TAG secondary detection antibody (required aspect of the MSD system) (diluted to 0.25 μg/mL in 0.05% Tween-20 in blocking buffer) was added to each well and incubated with shaking for 1 hour at room temperature. After rinsing three times with wash buffer, 150 μL of read buffer T with surfactant (MSD) were added to each empty well, and the plate was imaged on a SI 6000 imager (MSD) according to manufacturers' instructions provided for 96- or 384-well plates.
For orientation: In an ELISA, binding on a coated surface is turned into a signal by an enzyme label.
Take “2-(3-{[(3R,4R)-3-fluoro-2,2,6,6-tetramethylpiperidin-4-yl]amino}-1,2,4-triazin-6-yl)-5-[1-(^2H3)methyl-1H-pyrazol-4-yl]pyridin-3-ol and 2-(3-{[(3S,4S)-3-fluoro-2,2,6,6-tetramethylpiperidin-4-yl]amino}-1,2,4-triazin-6-yl)-5-[1-(^2H3)methyl-1H-pyrazol-4-yl]pyridin-3-ol [Compound 140]”: the IC50 was not above 100 nM.

In the case of “2-(3-{[(3S,4S)-3-fluoro-2,2,6,6-tetramethylpiperidin-4-yl]amino}-1,2,4-triazin-6-yl)-5-(1H-pyrazol-4-yl)pyridin-3-ol and 2-(3-{[(3R,4R)-3-fluoro-2,2,6,6-tetramethylpiperidin-4-yl]amino}-1,2,4-triazin-6-yl)-5-(1H-pyrazol-4-yl)pyridin-3-ol [Compound 139]”, the 50% inhibitory concentration (IC50) is not above 100 nM.

“2-(6-{[(1R,3s,5S)-1,5-dimethyl-8-azabicyclo[3.2.1]octan-3-yl]oxy}pyridazin-3-yl)-5-(1H-1,2,3-triazol-1-yl)pyridin-3-ol and 2-(6-{[(1S,3r,5R)-1,5-dimethyl-8-azabicyclo[3.2.1]octan-3-yl]oxy}pyridazin-3-yl)-5-(1H-1,2,3-triazol-1-yl)pyridin-3-ol [Compound 71]” showed an IC50 of 100 to 500 nM.

The substance “2-(6-{[(3R,4R)-3-fluoro-2,2,6,6-tetramethylpiperidin-4-yl]amino}pyridazin-3-yl)-5-[1-(^2H3)methyl-1H-pyrazol-4-yl]pyridin-3-ol or 2-(6-{[(3S,4S)-3-fluoro-2,2,6,6-tetramethylpiperidin-4-yl]amino}pyridazin-3-yl)-5-[1-(^2H3)methyl-1H-pyrazol-4-yl]pyridin-3-ol [Compound 19]” yielded a half-inhibitory concentration (IC50) not above 100 nM.

Substance “2-(6-{[(3R,4S)-3-fluoro-2,2,6,6-tetramethylpiperidin-4-yl]oxy}pyridazin-3-yl)-5-(1H-pyrazol-4-yl)pyridin-3-ol and 2-(6-{[(3S,4R)-3-fluoro-2,2,6,6-tetramethylpiperidin-4-yl]oxy}pyridazin-3-yl)-5-(1H-pyrazol-4-yl)pyridin-3-ol [Compound 6]” gave an IC50 not above 100 nM.

The substance “2-(6-{[(3R,4S)-3-fluoro-2,2,6,6-tetramethylpiperidin-4-yl]oxy}pyridazin-3-yl)-5-(2-methyl[1,2,4]triazolo[1,5-a]pyridin-6-yl)pyridin-3-ol and 2-(6-{[(3S,4R)-3-fluoro-2,2,6,6-tetramethylpiperidin-4-yl]oxy}pyridazin-3-yl)-5-(2-methyl[1,2,4]triazolo[1,5-a]pyridin-6-yl)pyridin-3-ol [Compound 55]” came in with an IC50 not above 100 nM.

Substance “2-(6-{[(3R,4S)-3-fluoro-2,2,6,6-tetramethylpiperidin-4-yl]oxy}pyridazin-3-yl)-5-(2-methylimidazo[1,2-a]pyridin-6-yl)pyridin-3-ol and 2-(6-{[(3S,4R)-3-fluoro-2,2,6,6-tetramethylpiperidin-4-yl]oxy}pyridazin-3-yl)-5-(2-methylimidazo[1,2-a]pyridin-6-yl)pyridin-3-ol [Compound 43]” returned an IC50 not above 100 nM.

Consider “2-(6-{[(3R,4S)-3-fluoro-2,2,6,6-tetramethylpiperidin-4-yl]oxy}pyridazin-3-yl)-5-(2-methylimidazo[1,2-a]pyrimidin-6-yl)pyridin-3-ol and 2-(6-{[(3S,4R)-3-fluoro-2,2,6,6-tetramethylpiperidin-4-yl]oxy}pyridazin-3-yl)-5-(2-methylimidazo[1,2-a]pyrimidin-6-yl)pyridin-3-ol [Compound 54]”, for which the IC50 was not above 100 nM.

In the case of “2-(6-{[(3R,4S)-3-fluoro-2,2,6,6-tetramethylpiperidin-4-yl]oxy}pyridazin-3-yl)-5-(2-methylimidazo[1,2-b]pyridazin-6-yl)pyridin-3-ol and 2-(6-{[(3S,4R)-3-fluoro-2,2,6,6-tetramethylpiperidin-4-yl]oxy}pyridazin-3-yl)-5-(2-methylimidazo[1,2-b]pyridazin-6-yl)pyridin-3-ol [Compound 48]”, the IC50 was not above 100 nM.

“2-(6-{[(3R,4S)-3-fluoro-2,2,6,6-tetramethylpiperidin-4-yl]oxy}pyridazin-3-yl)-5-(4-methyl-1H-imidazol-1-yl)pyridin-3-ol and 2-(6-{[(3S,4R)-3-fluoro-2,2,6,6-tetramethylpiperidin-4-yl]oxy}pyridazin-3-yl)-5-(4-methyl-1H-imidazol-1-yl)pyridin-3-ol [Compound 41]” gave an IC50 of 100 to 500 nM.

In the case of “2-(6-{[(3R,4S)-3-fluoro-2,2,6,6-tetramethylpiperidin-4-yl]oxy}pyridazin-3-yl)-5-(imidazo[1,2-a]pyrazin-6-yl)pyridin-3-ol and 2-(6-{[(3S,4R)-3-fluoro-2,2,6,6-tetramethylpiperidin-4-yl]oxy}pyridazin-3-yl)-5-(imidazo[1,2-a]pyrazin-6-yl)pyridin-3-ol [Compound 66]”, the 50% inhibitory concentration (IC50) lay within 100 to 500 nM.

For “2-(6-{[(3R,4S)-3-fluoro-2,2,6,6-tetramethylpiperidin-4-yl]oxy}pyridazin-3-yl)-5-(imidazo[1,2-b]pyridazin-6-yl)pyridin-3-ol and 2-(6-{[(3S,4R)-3-fluoro-2,2,6,6-tetramethylpiperidin-4-yl]oxy}pyridazin-3-yl)-5-(imidazo[1,2-b]pyridazin-6-yl)pyridin-3-ol [Compound 49]”, the IC50 was not above 100 nM.

As to “2-(6-{[(3R,4S)-3-fluoro-2,2,6,6-tetramethylpiperidin-4-yl]oxy}pyridazin-3-yl)-5-[2-methyl-8-(trifluoromethyl)imidazo[1,2-a]pyridin-6-yl]pyridin-3-ol and 2-(6-{[(3S,4R)-3-fluoro-2,2,6,6-tetramethylpiperidin-4-yl]oxy}pyridazin-3-yl)-5-[2-methyl-8-(trifluoromethyl)imidazo[1,2-a]pyridin-6-yl]pyridin-3-ol [Compound 46]”, the 50% inhibitory concentration (IC50) lay within 100 to 500 nM.

In turn, “2-(6-{[(3S,4S)-3-fluoro-2,2,6,6-tetramethylpiperidin-4-yl]amino}pyridazin-3-yl)-5-(1H-pyrazol-3-yl)pyridin-3-ol and 2-(6-{[(3R,4R)-3-fluoro-2,2,6,6-tetramethylpiperidin-4-yl]amino}pyridazin-3-yl)-5-(1H-pyrazol-3-yl)pyridin-3-ol [Compound 16]” gave an IC50 not above 100 nM.

Substance “2-{3-[(3R)-3-(tert-butylamino)pyrrolidin-1-yl]-1,2,4-triazin-6-yl}-5-(2,8-dimethylimidazo[1,2-b]pyridazin-6-yl)pyridin-3-ol [Compound 149]” had an IC50 not above 100 nM.

“2-{6-[(3R)-(tert-butylamino)pyrrolidin-1-yl]pyridazin-3-yl}-5-(1-methyl-1H-pyrazol-3-yl)pyridin-3-ol and 2-{6-[(3S)-(tert-butylamino)pyrrolidin-1-yl]pyridazin-3-yl}-5-(1-methyl-1H-pyrazol-3-yl)pyridin-3-ol [Compound 17]” came in with an IC50 of 500 to 1000 nM.

For the substance “2-{6-[(3R,5R)-3,5-dimethylpiperazin-1-yl]pyridazin-3-yl}-5-(7-fluoro-2-methyl-2H-indazol-5-yl)pyridin-3-ol and 2-{6-[(3S,5R)-3,5-dimethylpiperazin-1-yl]pyridazin-3-yl}-5-(7-fluoro-2-methyl-2H-indazol-5-yl)pyridin-3-ol [Compound 106]”, the 50% inhibitory concentration (IC50) is not above 100 nM.

Substance “2-{6-[(3S)-3-(propan-2-yl)piperazin-1-yl]pyridazin-3-yl}-5-(1H-pyrazol-4-yl)pyridin-3-ol and 2-{6-[(3R)-3-(propan-2-yl)piperazin-1-yl]pyridazin-3-yl}-5-(1H-pyrazol-4-yl)pyridin-3-ol [Compound 121]” displayed an IC50 not above 100 nM.

With “5-(1H-pyrazol-4-yl)-2-{6-[(3R,5S)-3,4,5-trimethylpiperazin-1-yl]pyridazin-3-yl}pyridin-3-ol and 5-(1H-pyrazol-4-yl)-2-{6-[(3S,5R)-3,4,5-trimethylpiperazin-1-yl]pyridazin-3-yl}pyridin-3-ol [Compound 90]”, the IC50 fell in the range of 100 to 500 nM.

For “5-(2,4-dimethyl-1,3-benzoxazol-6-yl)-2-(6-{[(3R,4S)-3-fluoro-2,2,6,6-tetramethylpiperidin-4-yl]oxy}pyridazin-3-yl)pyridin-3-ol and 5-(2,4-dimethyl-1,3-benzoxazol-6-yl)-2-(6-{[(3S,4R)-3-fluoro-2,2,6,6-tetramethylpiperidin-4-yl]oxy}pyridazin-3-yl)pyridin-3-ol [Compound 56]”, the IC50 is not above 100 nM.

“5-(2,8-dimethylimidazo[1,2-a]pyridin-6-yl)-2-(6-{[(3R,4S)-3-fluoro-2,2,6,6-tetramethylpiperidin-4-yl]oxy}pyridazin-3-yl)pyridin-3-ol and 5-(2,8-dimethylimidazo[1,2-a]pyridin-6-yl)-2-(6-{[(3S,4R)-3-fluoro-2,2,6,6-tetramethylpiperidin-4-yl]oxy}pyridazin-3-yl)pyridin-3-ol [Compound 44]” had an IC50 not above 100 nM.
